Data on 5 molecules can be found in patent US5266588A, “Compound produced by a strain of microtetraspora having antibacterial and neuritogenic activity” (Bristol-Myers Squibb Company, priority 1992, dated 1993).

In brackets after ≈: the same amount, converted by molar mass. Entries after “also recorded” stand apart in the source; their conditions may differ.

The conditions of series [1]: literature table; cited from earlier work.
The next series deals with S. aureus A15036 (MRSA). As to the kind of experiment: Antibacterial activity (serial 2-fold dilution MIC). Particulars: Staphylococcus aureus, Nutrient Agar, pH 7.0, 10^5 cells/ml, 32° C., 18 hr. The class given is cell-based. On the procedure:
(§1) Assay for the Antibacterial Activity
(§2) The MIC's of BU-4514N against various test microorganisms were determined by the serial 2-fold dilution method after overnight incubation at 32° C. Nutrient agar medium (Difco) was used for Gram-positive and Gram-negative bacteria.
(§3) Medium: Nutrient Agar, pH 7.0
(§4) Inoculum size: 10^5 cells/ml
(§5) Incubations: 32° C., 18 hr

The test system of another series is B. subtilis PCI 219. Described as above. Format: cell-based. Particulars: Bacillus subtilis, PCI219; Nutrient Agar, pH 7.0; 10^5 cells/ml; 32° C., 18 hr. On the procedure: as §1, §2, §3, §4, §5
Another series deals with P. aeruginosa A9843A. The description is as above. Format: cell-based. Particulars: Pseudomonas aeruginosa, 18 h, pH 7. On the procedure:
as §1, §2, §3, §4, §5

For another series, the system named is S. aureus Smith. Described as above. The conditions noted are these: Staphylococcus aureus; Nutrient Agar, pH 7.0; 10^5 cells/ml; 32° C., 18 hr. The class given is cell-based. On the procedure: as §1, §2, §3, §4, §5
In the next series the test system is E. coli K12. The description is as above. The class given is cell-based. Particulars: Escherichia coli, Nutrient Agar, pH 7.0, 10^5 cells/ml, 32° C., 18 hr. As to the method:
as §1, §2, §3, §4, §5

Another series deals with S. typhi 901. Described as above. Format: cell-based. Particulars: Salmonella enterica, 18 h, pH 7. On the procedure: as §1, §2, §3, §4, §5
For a further series, the system named is S. aureus FDA 209P JC-1. The description is as above. Format: cell-based. The conditions noted are these: Staphylococcus aureus, FDA209P; Nutrient Agar, pH 7.0; 10^5 cells/ml; 32° C., 18 hr. On the procedure:
as §1, §2, §3, §4, §5

The test system of another series is E. coli Juhl A15119. The series is described as above. The conditions noted are these: Escherichia coli, JUHLA15119; Nutrient Agar, pH 7.0; 10^5 cells/ml; 32° C., 18 hr. The class given is cell-based. As to the method: as §1, §2, §3, §4, §5
In a further series the test system is E. coli NIHJ JC-2. Described as above. Format: cell-based. Particulars: Escherichia coli, NIHJJC2; Nutrient Agar, pH 7.0; 10^5 cells/ml; 32° C., 18 hr. As to the method: as §1, §2, §3, §4, §5
In another series the test system is C. fleundii GN 7391. The series is described as above. Format: cell-based. The conditions noted are these: Nutrient Agar, pH 7.0; 10^5 cells/ml; 32° C., 18 hr. On the procedure: as §1, §2, §3, §4, §5
A further series concerns M. luteus PCI 1001. Described as above. The class given is cell-based. Particulars: Micrococcus luteus, PCI1001; Nutrient Agar, pH 7.0; 10^5 cells/ml; 32° C., 18 hr. As to the method: as §1, §2, §3, §4, §5
Another series concerns K. pneumoniae PCI 602. Described as above. Format: cell-based. Particulars: Klebsiella pneumoniae, PCI602; Nutrient Agar, pH 7.0; 10^5 cells/ml; 32° C., 18 hr. As to the method:
as §1, §2, §3, §4, §5

The next series deals with PC 12R cells. As to the kind of experiment: Assay for the neurite outgrowth (PC 12R cells pre-treated with 0.1 ng/ml NGF). Format: cell-based, rat. The conditions noted are these: for No. of Neurites: neurites over 10 mm long on monitor. As to the method:
Assay for the Neurite Outgrowth
The PC 12R cell density was adjusted to 1×10^5 cells/ml and 180 μl aliquots of the cell suspension were added to assay wells in a 96 well microtiter plate (Suimitomo). […] For the positive controls, 5.0 ng/ml NGF was added to a well. As negative controls, PC 12R cells without NGF were also prepared. […] Then a 20 μl aliquot of a test sample at varied concentrations was added to the test well containing PC 12R cells pre-treated with 0.1 ng/ml NGF. After 24 hours' incubation, the medium was removed and the cells were fixed with 0.3% glutaraldehyde (Tokyo Kasei) in Dulbecco's phosphate buffered saline and stained with Harris hematoxylin solution (Merck).
The stained cells were observed under a phase-contrast microscope connected with a video camera-CRT system. PC 12R cells were magnified 500 times on the CRT monitor. The lengths of spikes of the negative control cells were measured in order to establish the standard length of a spike of the PC 12R cells.

A further series concerns Gram-positive bacteria. As to the kind of experiment: In vitro antibacterial activity against Gram-positive bacteria. The class given is cell-based. As to the method: as §1, §2
Another series in a line: Solubility. The class given is physicochemical.
Series [2] has as its system cholinergic neuron atrophy and spatial memory impairment. The conditions noted are these: aged rats; cited from earlier work.
Series [3] deals with retrograde neuronal cell death; septohippocampal connections. The conditions noted are these: cited from earlier work.
In series [4] the test system is PC12 pheochromocytoma cells. Particulars: cited from earlier work.
Series [5] has as its system adrenal medullary autografts. Particulars: intraperitoneal infusion, Parkinson's disease; cited from earlier work.
Where [6] appears, read: 1.6 μg/ml, with 0.1 ng/ml NGF, 24 h.
Where [7] appears, read: 3.1 μg/ml, with 0.1 ng/ml NGF, 24 h.
Setting [8] is: 6.3 μg/ml, with 0.1 ng/ml NGF, 24 h.
[9] abbreviates: 12.5 μg/ml, sum of 5 fields/well and 3 wells, with 0.1 ng/ml NGF, 24 h.
Where [10] appears, read: NGF 0.1 ng/ml (Running control).

As for `C=C1/C(=C\C=C2/CCC[C@]3(C)[C@@H]([C@H](C)CCCC(C)(C)O)CC[C@@H]23)C[C@@H](O)C[C@@H]1O` [1,25-Dihydroxy-vitamin D3], the “Note (reported NGF mimic activity)” value in [1] is “NGF inducer”.
For orientation: MIC means the least concentration at which growth counts as inhibited. A low value points to inhibition by little substance. Regarding `CC1=CC2CC(C)CCC2C(C)(C(=O)C2=C(O)CNC2=O)C1CC(C)OC1CCC(N)C(C)O1` (stereo not shown) [BU-4514N], the minimal inhibitory concentration (MIC) was 3.1 µg/mL (≈ 6.53 µM) in the series on S. aureus A15036 (MRSA); 0.8 µg/mL (≈ 1.69 µM) against B. subtilis PCI 219; > 100 µg/mL against P. aeruginosa A9843A; 3.1 µg/mL (≈ 6.53 µM) against S. aureus Smith; > 100 µg/mL against E. coli K12; > 100 µg/mL in the series with S. typhi 901. Besides, the MIC in the series with S. aureus FDA 209P JC-1 was 1.6 µg/mL (≈ 3.37 µM); with E. coli Juhl A15119, > 100 µg/mL; in the series on E. coli NIHJ JC-2, > 100 µg/mL; against C. fleundii GN 7391, > 100 µg/mL; with M. luteus PCI 1001, 1.6 µg/mL (≈ 3.37 µM); against K. pneumoniae PCI 602, > 100 µg/mL. Further, the “No. of Neurites” value is listed as 2 in the series on PC 12R cells (setting [6]), 25 with PC 12R cells (setting [7]), 149 in the series with PC 12R cells (setting [8]) and 244 in the series on PC 12R cells (setting [9]). Moreover, the “No. of Cells” value in the series with PC 12R cells (setting [6]) was found to be 1611; in the series on PC 12R cells (setting [7]), 1848; with PC 12R cells (setting [8]) it was 1570; in the series with PC 12R cells (setting [9]), 1123. Moreover, the “Ratio (No. of Neurites/No. of Cells)” value in the series with PC 12R cells (setting [6]) worked out at 0.12%; in the series with PC 12R cells (setting [7]) it was 1.4%; with PC 12R cells (setting [8]), 9.5%; in the series with PC 12R cells (12.5 μg/ml, with 0.1 ng/ml NGF, 24 h) it was 21.7%. For the same molecule, in the series with PC 12R cells (12.5 to 6.3 μg/ml, compared to the negative control cells), the “neurite outgrowth in number and length” value is “significantly induces the neurite outgrowth in number and length”. Further, in the series on Gram-positive bacteria, the “in vitro antibacterial activity” value is “good in vitro antibacterial activity”. The solubility entry in “Solubility” (acidic water) is listed as “soluble”; in the series “Solubility” (dimethylsulfoxide) it was “soluble”; in the series “Solubility” (methanol) it was “soluble”; in the series “Solubility” (ordinary organic solvents, such as chloroform, ethyl acetate and benzene), “practically insoluble”; in the series “Solubility” (water), “practically insoluble”.
Regarding `CCCCCCCCCCCCCC(=O)O[C@@H]1[C@@H](C)[C@@]2(O)[C@@H](C=C(CO)C[C@]3(O)C(=O)C(C)=C[C@@H]23)[C@@H]2C(C)(C)[C@]12OC(C)=O` [Phorbol 12-myristate 13-acetate], the “Note (reported NGF mimic activity)” value in [1] is given as “NGF inducer”.
On to `CC1=C(/C=C/C(C)=C/C=C/C(C)=C/C(=O)O)C(C)(C)CCC1` [Retinoic acid], for which the “Note (reported NGF mimic activity)” value in series [1] is reported as “NGF inducer”.
For “NGF: protein known to be essential for the development and maintenance of certain sympathetic and sensory neurons in the peripheral nervous system”, the “cholinergic neuron atrophy and spatial memory impairment” value in series [2] was “ameliorate cholinergic neuron atrophy and spatial memory impairment”. In addition, in series [3] (after damage to the septohippocampal connections), the behavioral recovery result is on record as “promote behavioral recovery”. Besides, in series [3] (intraventricular injections or infusions, young adult rats), the “retrograde neuronal cell death” value is reported as “prevent retrograde neuronal cell death”. In addition, in the series on PC 12R cells (setting [10]), the “No. of Cells” value is recorded as 1565, the “Ratio (No. of Neurites/No. of Cells)” value came to 0.13% and the “No. of Neurites” value was 2. Further, in the series with PC 12R cells (NGF 5 ng/ml (Positive control)), the “No. of Cells” value is 1053, the “Ratio (No. of Neurites/No. of Cells)” value amounted to 6.8% and the “No. of Neurites” value stood at 72. In addition, the “sensitivity of PC 12R cells to NGF” value in the series on PC 12R cells (as high as) stood at 1 ng/mL. Also, the “response of PC12 cells to NGF” value in [4] was “differentiate into sympathetic neuron-like cells; also recorded: differentiating into sympathetic neuron-like cells”. Further, in series [5], the “support of adrenal medullary autografts” value is reported as “supports adrenal medullary autografts”.
